Data from ChEMBL document CHEMBL3045204, “Synthesis and structureantibacterial activity relationship studies of 4-substituted phenyl-4,5-dihydrobenzo[f][1,4]oxazepin-3(2H)-thiones” (2011).
≈ marks a conversion by molar mass, not a printed value.

Columns and labels:
Assay type in all cases: functional
Candida albicans = assay: Antifungal activity Candida albicans ATCC 90028 after 48 hr by broth microdilution method; settings: ATCC 90028, 48 h
Enterococcus faecalis = assay: Antibacterial activity Enterococcus faecalis ATCC 29212 after 16 to 20 hr by broth microdilution method
Escherichia coli = assay: Antibacterial activity Escherichia coli ATCC 25922 after 16 to 20 hr by broth microdilution method
Staphylococcus aureus = assay: Antibacterial activity Staphylococcus aureus […] after 16 to 20 hr by broth microdilution method
Pseudomonas aeruginosa = assay: Antibacterial activity Pseudomonas aeruginosa ATCC 27853 after 16 to 20 hr by broth microdilution method

| Structure (SMILES) | MIC (Candida albicans) | MIC (Enterococcus faecalis) | MIC (Escherichia coli) | MIC (Staphylococcus aureus) | MIC (Pseudomonas aeruginosa) |
| --- | --- | --- | --- | --- | --- |
| COc1ccc(N2Cc3ccccc3OCC2=S)cc1 | 800 µg/mL (≈ 2800 µM) | 50 µg/mL (≈ 175 µM) | 200 µg/mL (≈ 701 µM) | 400 µg/mL (≈ 1400 µM) | 100 µg/mL (≈ 350 µM) |
| Cc1ccc(N2Cc3ccccc3OCC2=S)cc1 | 200 µg/mL (≈ 742 µM) | 25 µg/mL (≈ 92.8 µM) | 200 µg/mL (≈ 742 µM) | 200 µg/mL (≈ 742 µM) | 25 µg/mL (≈ 92.8 µM) |
| Cc1cccc(N2Cc3ccccc3OCC2=S)c1 | 800 µg/mL (≈ 2970 µM) | 50 µg/mL (≈ 186 µM) | 400 µg/mL (≈ 1480 µM) | 800 µg/mL (≈ 2970 µM) | 100 µg/mL (≈ 371 µM) |
| S=C1COc2ccccc2CN1c1ccccc1 | 800 µg/mL (≈ 3130 µM) | 100 µg/mL (≈ 392 µM) | 200 µg/mL (≈ 783 µM) | 800 µg/mL (≈ 3130 µM) | 100 µg/mL (≈ 392 µM) |
| Fc1ccc(N2Cc3ccccc3OCC2=S)cc1 | 400 µg/mL (≈ 1460 µM) | 50 µg/mL (≈ 183 µM) | 100 µg/mL (≈ 366 µM) | 800 µg/mL (≈ 2930 µM) | 100 µg/mL (≈ 366 µM) |
| COc1cccc(N2Cc3ccccc3OCC2=S)c1 | 100 µg/mL (≈ 350 µM) | 25 µg/mL (≈ 87.6 µM) | 100 µg/mL (≈ 350 µM) | 200 µg/mL (≈ 701 µM) | 50 µg/mL (≈ 175 µM) |
| S=C1COc2ccccc2CN1c1ccc(I)cc1 | 800 µg/mL (≈ 2100 µM) | 50 µg/mL (≈ 131 µM) | 100 µg/mL (≈ 262 µM) | 400 µg/mL (≈ 1050 µM) | 50 µg/mL (≈ 131 µM) |
| S=C1COc2ccccc2CN1c1ccc(Cl)cc1 | 800 µg/mL (≈ 2760 µM) | 25 µg/mL (≈ 86.3 µM) | 400 µg/mL (≈ 1380 µM) | 400 µg/mL (≈ 1380 µM) | 100 µg/mL (≈ 345 µM) |
| S=C1COc2ccccc2CN1c1ccc(Br)cc1 | 100 µg/mL (≈ 299 µM) | 12.5 µg/mL (≈ 37.4 µM) | 100 µg/mL (≈ 299 µM) | 100 µg/mL (≈ 299 µM) | 25 µg/mL (≈ 74.8 µM) |
| S=C1COc2ccccc2CN1c1cccc(Cl)c1 | 800 µg/mL (≈ 2760 µM) | 100 µg/mL (≈ 345 µM) | 200 µg/mL (≈ 690 µM) | 400 µg/mL (≈ 1380 µM) | 200 µg/mL (≈ 690 µM) |
| FC(F)(F)c1cccc(N2Cc3ccccc3OCC2=S)c1 | 400 µg/mL (≈ 1240 µM) | 25 µg/mL (≈ 77.3 µM) | 100 µg/mL (≈ 309 µM) | 400 µg/mL (≈ 1240 µM) | 50 µg/mL (≈ 155 µM) |
| O=[N+]([O-])c1cccc(N2Cc3ccccc3OCC2=S)c1 | 200 µg/mL (≈ 666 µM) | 25 µg/mL (≈ 83.2 µM) | 100 µg/mL (≈ 333 µM) | 200 µg/mL (≈ 666 µM) | 25 µg/mL (≈ 83.2 µM) |
| O=[N+]([O-])c1ccc(N2Cc3ccccc3OCC2=S)cc1 | 800 µg/mL (≈ 2660 µM) | 50 µg/mL (≈ 166 µM) | 200 µg/mL (≈ 666 µM) | > 1600 µg/mL | 50 µg/mL (≈ 166 µM) |
| CN(C)c1ccc(N2Cc3ccccc3OCC2=S)cc1 | 800 µg/mL (≈ 2680 µM) | 25 µg/mL (≈ 83.8 µM) | 200 µg/mL (≈ 670 µM) | 400 µg/mL (≈ 1340 µM) | 100 µg/mL (≈ 335 µM) |
| CC1(C)S[C@@H]2[C@H](NC(=O)[C@H](N)c3ccccc3)C(=O)N2[C@H]1C(=O)O [AMPICILLIN] | – | 0.78 µg/mL (≈ 2.23 µM) | 6.25 µg/mL (≈ 17.9 µM) | 0.78 µg/mL (≈ 2.23 µM) | – |
| O=C(O)c1cn(C2CC2)c2cc(N3CCNCC3)c(F)cc2c1=O [CIPROFLOXACIN] | – | 0.25 µg/mL (≈ 0.754 µM) | 0.04 µg/mL (≈ 0.121 µM) | 0.25 µg/mL (≈ 0.754 µM) | – |
| OC(Cn1cncn1)(Cn1cncn1)c1ccc(F)cc1F [FLUCONAZOLE] | 0.25 µg/mL (≈ 0.816 µM) | – | – | – | – |
